Measurements: patent EP0503710A2, “Flunarizine containing anti-neoplastic compositions” (JANSSEN PHARMACEUTICA N.V., priority 1991, dated 1992)

How the values were obtained:
[1] = test system: P388/ADR (adriamycine resistant cell line) murine leukemia; experiment: Subrenal capsule implant of P388/ADR tumour fragments in mice, change in tumor size at day 7; format: in vivo; details: P388/ADR implants under renal capsule, monotherapy, daily intraperitoneal day 1 until day 6
Source text: (§1) The potential of flunarizine as a potent enhancer of adriamycine (ADR) cytotoxicity in the murine sarcoma MO4 (semi-resistant cell line) "in vitro" and "in vivo" and its reversed adriamycine resistance in the P388/ADR (adriamycine resistant cell line) murine leukemia "in vivo"can be demostrated by the following procedure.
(§2) Fragments of subcutaneously grown tumours were inserted under the renal capsule in mice and their initial size measured under a microscope. At day 7, the mice were killed and the final size of the implants determined. The change in tumor size was expressed as a percentage of the initial size, the latter considered to be 100%. Daily intraperitoneal treatment with ADR alone or in combination with flunarizine which was formulated in hydroxypropyl-β-cyclodextrin was installed from day 1 until day 6. Control animals received the vehicle hydroxypropyl-ß-cyclodextrin.

[2] = test system: murine sarcoma MO4 (semi-resistant cell line); experiment: Subrenal capsule implant of MO4 tumour fragments in mice, change in tumor size at day 7; format: in vivo; details: daily intraperitoneal day 1 until day 6
Source text: as §1, §2

Row | SMILES | effect on tumor growth [1] | effect on tumor growth ([2]; MO4 implants under renal capsule, flunarizine monotherapy in hydroxypropyl-β-cyclodextrin, size at day 7) | effect on tumor growth ([2]; MO4-tumor, adriamycine alone, dosages lower than 2.5 mg/kg) | growth reduction ([2]; MO4-tumor, adriamycine alone, half the maximal tolerated dose 2.5 mg/kg) [%]
1 | Fc1ccc(C(c2ccc(F)cc2)N2CCN(CC=Cc3ccccc3)CC2)cc1 [Flunarizine, 1-[bis(4-fluorophenyl)methyl]-4-(3-phenyl-2-propenyl)piperazine] | no effect | no effect | – | –
2 | COc1cccc2c1C(=O)c1c(O)c3c(c(O)c1C2=O)C[C@@](O)(C(=O)CO)C[C@@H]3O[C@H]1C[C@H](N)[C@H](O)[C@H](C)O1 [adriamycine] | inactive | – | no effect | 25
